SMILES strings stand for the structures. The source made the active and inactive calls. No cut-off for these calls is given here.

We go through 14 compounds from ChEMBL document CHEMBL3352240, “Upregulation of both heme oxygenase-1 and ATPase inhibitory factor 1 renders tumoricidal activity by synthetic flavonoids via depleting cellular ATP” (2014).

Experiment [1] relates to MRC5. Kind of experiment: Cytotoxicity against human MRC5 cells by MTT assay in presence of H2O2. Type of experiment: functional, cell-based. For orientation: Tetrazolium dyes change colour on reduction, which living cells bring about.
For experiment [2], the system named is MRC5. Kind of experiment: Induction of ATPIF-1 expression in human MRC5 cells […] after 24 hrs by immunoblotting analysis relative to control. Format: functional.
Experiment [3] deals with MRC5. The experiment in a line: Induction of HO-1 expression in human MRC5 cells […] after 24 hrs by immunoblotting analysis relative to control. Type of experiment: functional. (In general: Immunoblotting shows a protein as a band on a membrane.)
Experiment [4] relates to HT-29. The experiment in a line: Cytotoxicity against human HT-29 cells at 10 to 50 uM after 24 to 48 hrs by MTT assay. Type of experiment: functional, cell-based.
Experiment [5] has as its system MRC5. The experiment in a line: Cytotoxicity against human MRC5 cells at 30 uM by MTT assay in presence of H2O2. Type of experiment: functional, cell-based.
Experiment [6] relates to HT-29. The experiment in a line: Induction of cellular energetics impairment in human HT-29 cells assessed as cellular ATP level by Cell Titre-Glo assay relative to vehicle-treated control. Type of experiment: functional.
The subject of experiment [7] is HCT-116. Kind of experiment: Induction of cellular energetics impairment in human HCT116 cells assessed as cellular ATP level by Cell Titre-Glo assay relative to vehicle-treated control. Type of experiment: functional.
Experiment [8] deals with HCT-116. The experiment in a line: Cytotoxicity against human HCT116 cells at 10 to 50 uM after 24 to 48 hrs by MTT assay. Format: functional, cell-based.
Experiment [9] concerns HCT-116. The experiment in a line: Induction of ATPIF-1 expression in human HCT116 cells at 20 uM after 48 hrs relative to vehicle-treated control. Format: functional, cell-based.
The test system of experiment [10] is HCT-116. Kind of experiment: Cytotoxicity against human HCT116 cells at 10 to 50 uM by MTT assay. Type of experiment: functional, cell-based. The settings on record: TDE = time-dependent effect.
The test system of experiment [11] is HT-29. Kind of experiment: Induction of mitochondrial morphology changes in human HT-29 cells assessed as mitochondria with electron dense phenotype and well preserved cristae by microscopic analysis. Type of experiment: functional, cell-based.
Experiment [12] deals with HCT-116. The experiment in a line: Cytotoxicity against human HCT116 cells at 30 uM after 24 hrs by MTT assay in presence of HO-1 inhibitor ZnPP. Format: functional, cell-based.
The subject of experiment [13] is HT-29. The experiment in a line: Cytotoxicity against human HT-29 cells at 30 uM after 24 hrs by MTT assay in presence of HO-1 inducer hemin. Type of experiment: functional, cell-based.
In experiment [14] the test system is HCT-116. The experiment in a line: Induction of apoptosis in human HCT116 cells assessed as PARP cleavage at 20 uM after 48 hrs by Western blotting method. Type of experiment: functional, cell-based.
For experiment [15], the system named is HT-29. Kind of experiment: Cytotoxicity against human HT-29 cells at 20 uM after 24 to 48 hrs by MTT assay. Type of experiment: functional, cell-based.
Experiment [16] has as its system HCT-116. Kind of experiment: Induction of mitochondrial morphology changes in human HCT116 cells assessed as swelling and damaged mitochondria by microscopic analysis. Type of experiment: functional, cell-based.
Experiment [17] concerns MRC5. Kind of experiment: Induction of apoptosis in human MRC5 cells assessed as downregulation of Bcl-XL protein expression in presence of H2O2 by Western blotting method. Format: functional, cell-based.
In experiment [18] the test system is HT-29. Kind of experiment: Induction of ATPIF-1 expression in human HT-29 cells at 20 uM after 48 hrs relative to vehicle-treated control. Format: functional, cell-based.
Experiment [19] has as its system HCT-116. The experiment in a line: Cytotoxicity against human HCT116 cells after 24 to 48 hrs by MTT assay. Format: functional, cell-based.
The subject of experiment [20] is HCT-116. Kind of experiment: Cytotoxicity against human HCT116 cells at 30 uM after 24 hrs by MTT assay in presence of HO-1 inhibitor siRNA. Type of experiment: functional, cell-based.
Experiment [21] concerns MRC5. The experiment in a line: Induction of apoptosis in human MRC5 cells assessed as downregulation of Bcl2 protein expression in presence of H2O2 by Western blotting method. Type of experiment: functional, cell-based.
Experiment [22] has as its system HCT-116. The experiment in a line: Cytotoxicity against human HCT116 cells at 20 uM after 24 to 48 hrs by MTT assay. Type of experiment: functional, cell-based.
Experiment [23] deals with HT-29. The experiment in a line: Induction of mitochondrial morphology changes in human HT-29 cells assessed as lipid bodies near mitochondria by microscopic analysis. Format: functional, cell-based.

As to `C=C[C@@H](c1ccc(OC)cc1)c1c(O)cc(O)c2c(=O)cc(-c3ccccc3)oc12`, in the experiment with MRC5 [1], the result was inactive. In addition, the Ratio with MRC5 [2] stood at 1.8; in the experiment on MRC5 [3], 1.1.
As for `C=C[C@@H](c1ccc(OCc2ccccc2)c(OC)c1)c1c(OCc2ccccc2)cc(OCc2ccccc2)c2c(=O)cc(-c3ccccc3)oc12`, the results for the Ratio in the experiment with MRC5 [2] and in the experiment on MRC5 [3] were 2 and 0.6, respectively.
`COc1cc(/C=C/COc2cc(OCc3ccccc3)c3c(=O)cc(-c4ccccc4)oc3c2)ccc1OCc1ccccc1`: the result in the experiment on HT-29 [4], with MRC5 [5], in the experiment on MRC5 [1] and in the experiment with HCT-116 [8] was inactive. Moreover, the figures for the Ratio with MRC5 [2] and in the experiment on MRC5 [3] were 1 and 3, respectively. The figures for the Activity in the experiment with HT-29 [6] and in the experiment with HCT-116 [7] were 99.2% and 79.3%, respectively.
With `C=C[C@@H](c1ccc(OC)c(OC)c1)c1c(OC)cc(O)c2c(=O)cc(-c3ccccc3)oc12`, the values for the Ratio with MRC5 [2] and with MRC5 [3] were 2 and 2.2, respectively.
Consider `C=C[C@@H](c1ccccc1)c1c(O)cc(O)c2c(=O)cc(-c3ccccc3)oc12`, for which the Ratio is on record as 1.5 in the experiment on MRC5 [2] and 2.4 in the experiment with MRC5 [3].
In the case of `C=C[C@@H](c1ccc(O)c(OC)c1)c1c(OC)cc(OC)c2c(=O)cc(-c3ccccc3)oc12`, the Ratio with MRC5 [2] turned out to be 2.3; with MRC5 [3], 2.2.
Take `C=C[C@@H](c1ccc(OC)c(OC)c1)c1c(O)cc(OC)c2c(=O)cc(-c3ccccc3)oc12`: the values for the Ratio in the experiment with MRC5 [2] and in the experiment on MRC5 [3] were 1.9 and 1.1, respectively.
As for `C=C[C@@H](c1ccc(O)c(OC)c1)c1c(OC)cc(O)c2c(=O)cc(-c3ccccc3)oc12`, the result with HCT-116 [9], in the experiment on HT-29 [11], with HT-29 [13], with HCT-116 [14], in the experiment on HT-29 [15] and in the experiment with HCT-116 [16] was Active. Moreover, the result with MRC5 [17], in the experiment on MRC5 [1], with HT-29 [18], in the experiment with MRC5 [21], in the experiment with HCT-116 [22] and in the experiment with HT-29 [23] was Active. Also, the Activity result with HCT-116 [10] was “tde”; with HCT-116 [19], “Dose-dependent effect”; in the experiment on HT-29 [6], 37.8%; in the experiment on HCT-116 [7], 37.3%. Also, the result in the experiment on HCT-116 [12] and in the experiment with HCT-116 [20] was inactive. For the same compound, the Ratio is on record as 1.8 in the experiment with MRC5 [2] and 3.4 in the experiment on MRC5 [3].
Take `C=C[C@@H](c1ccc(OC)c(OC)c1)c1c(OC)cc(OC)c2c(=O)cc(-c3ccccc3)oc12`: the Ratio was 1.6 in the experiment with MRC5 [2] and 1.5 in the experiment with MRC5 [3].
As for `C=C[C@@H](c1ccc(OC)c(OC)c1)c1c(O)cc(O)c2c(=O)cc(-c3ccccc3)oc12`, the figures for the Ratio in the experiment with MRC5 [2] and with MRC5 [3] were 1.3 and 1.6, respectively.
Take `C=C[C@@H](c1ccc(O)c(OC)c1)c1c(O)cc(O)c2c(=O)cc(-c3ccccc3)oc12`: in the experiment with MRC5 [5], the result was Active. Moreover, the Ratio in the experiment on MRC5 [2] was 2.3; in the experiment with MRC5 [3], 1.7.
With `C=C[C@@H](c1ccc(O)c(OC)c1)c1c(O)cc(OC)c2c(=O)cc(-c3ccccc3)oc12`, the Ratio is given as 1.6 in the experiment with MRC5 [2] and 1.8 in the experiment on MRC5 [3].
Consider `C=C[C@@H](c1ccc(OCc2ccccc2)c(OC)c1)c1c(O)cc(OCc2ccccc2)c2c(=O)cc(-c3ccccc3)oc12`, for which the Ratio was 1.5 with MRC5 [2] and 1.1 in the experiment with MRC5 [3].
In the same order, the values of `C=C[C@@H](c1ccc(O)c(OC)c1)c1c(O)cc(O)c2c(=O)cc(-c3ccc(OC)cc3)oc12` are 1.4 and 2.3.
